System: T1, Z. jujuba peroxidase (POD IIA)
T1 construct: 56 kDa by gel filtration and SDS-PAGE (single band); EC 1.11.1.7
Assay: absorbance at […] nm, Lineweaver-Burk
Type: biochemical, Ziziphus jujuba
Details: co-substrate H2O2; 0.05 M sodium acetate pH 5.5; 50 °C; guaiacol 20-90 mM; text prints 23.5 with the units of Km and Vmax interchanged (unit/ml)

Work on `COc1ccccc1O` [guaiacol] yielded a Km of 23.5 mM.

Source: publication PMC7224213, “A novel peroxidase from Ziziphus jujuba fruit: purification, thermodynamics and biochemical characterization properties” (Scientific Reports, 2020)
